Assay results from patent EP3884956A1, “METHODS FOR PRODUCING HEME PEROXIDASES” (Technische Universität Wien, priority 2020, dated 2021).
Where a chain is given by its changes, count along the chain named.

Legend:
Assay in all cases: Enzyme kinetic parameters, 96-well plate assay
Type in all cases: biochemical
[1] = biological target: T1, horseradish peroxidase variant HRP N13D/N57S/N175S/N255D/N268D (Armoracia rusticana, UniProt P00433, N205S/N285D/N298D/N43D/N87S); conditions: 50 mM phosphate-citrate buffer pH 5, 30 °C
T1 sequence (P00433 31-338 N43D/N87S/N205S/N285D/N298D): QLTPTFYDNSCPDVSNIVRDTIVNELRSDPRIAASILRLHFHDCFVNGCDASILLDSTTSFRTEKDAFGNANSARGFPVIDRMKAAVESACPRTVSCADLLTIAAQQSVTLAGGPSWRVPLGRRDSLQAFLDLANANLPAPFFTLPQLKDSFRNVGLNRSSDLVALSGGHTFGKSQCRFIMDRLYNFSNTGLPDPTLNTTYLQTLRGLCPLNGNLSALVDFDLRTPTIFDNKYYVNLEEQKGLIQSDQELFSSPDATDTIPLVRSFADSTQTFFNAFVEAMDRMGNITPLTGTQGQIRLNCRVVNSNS
Experimental: (§1) Plant HRP Type VI-A (Cat. No.: P6782) was obtained from Sigma-Aldrich (St. Louis, MO, USA). All HRP variants produced in E. coli consisted of the sequence as set forth in SEQ ID NO: 2 with the indicated mutations unless specified otherwise.
(§2) For measurements with 3,3',5,5'-tetramethylbenzidine (TMB) as substrate, the reaction mixture in each well of the 96-well plate contained a saturating hydrogen peroxide concentration of 1 mM and varying TMB concentrations (20 - 550 µM) in 50 mM phosphate-citrate buffer pH 5 in a final volume of 200 µL. Protein sample (5 µL) was mixed with 175 µl TMB-buffer mixture and the reaction was started with 20 µl hydrogen peroxide solution (10 mM). The increase in absorption was followed at 652 nm for 60s at 30 °C in a Tecan Infinite M200 PRO instrument. The kinetic parameters were calculated using Sigma Plot software (Systat Software INC., San Jose, CA, USA) and an extinction coefficient of ε652 = 39 mM^-1 cm^-1 (see Josephy, et al. "The horseradish peroxidase-catalyzed oxidation of 3, 5, 3', 5'-tetramethylbenzidine. Free radical and charge-transfer complex intermediates." Journal of Biological Chemistry 257.7 (1982): 3669-3675).
(§3) The increase in absorption was followed at 420 nm for 120 s at 30 °C in a Tecan Infinite M200 PRO instrument. The kinetic parameters were calculated using Sigma Plot software (Systat Software INC., San Jose, CA, USA) and an extinction coefficient of ε420 = 36 mM^-1 cm^-1 (see Childs and Bardsley. "The steady-state kinetics of peroxidase with 2, 2'-azino-di-(3-ethyl-benzthiazoline-6-sulphonic acid) as chromogen." Biochemical Journal 145.1 (1975): 93-103).
as §3

[2] = biological target: T2, horseradish peroxidase variant HRP N13D/N57S/P146Q/N175S/N255D/N268D/N275K (mHRP, SEQ ID NO: 4) (Armoracia rusticana, UniProt P00433, N205S/N285D/N298D/N305K/N43D/N87S/P176Q); conditions: 50 mM phosphate-citrate buffer pH 5, 30 °C; for Vmax (substrate ABTS): ABTS 0.1 - 7 mM, 1 mM hydrogen peroxide
T2 sequence (P00433 31-338 N43D/N87S/P176Q/N205S/N285D/N298D/N305K): T1 sequence (P00433 31-338 N43D/N87S/N205S/N285D/N298D) with P146Q, N275K
Experimental: as §1, §2, §3, §3

[3] = biological target: T3, plant-derived HRP (pHRP; Plant HRP Type VI-A, horseradish peroxidase) (Armoracia rusticana, UniProt P00433); conditions: Table 19; ABTS 0.1 - 7 mM, 1 mM hydrogen peroxide, 50 mM phosphate-citrate buffer pH 5, 30 °C
T3 sequence (P00433 31-338): T1 sequence (P00433 31-338 N43D/N87S/N205S/N285D/N298D) with D13N, S57N, S175N, D255N, D268N
Experimental: as §1, §2, §3

[4] = biological target: T4, wild-type HRP (rHRP, horseradish peroxidase variant C1A, SEQ ID NO: 2) (Armoracia rusticana, UniProt P00433); conditions: Table 20; TMB 20 - 550 µM, 1 mM hydrogen peroxide, 50 mM phosphate-citrate buffer pH 5, 30 °C
T4 sequence (P00433 31-338): T1 sequence (P00433 31-338 N43D/N87S/N205S/N285D/N298D) with D13N, S57N, S175N, D255N, D268N
Experimental: as §1, §2, §3

[5] = Table 17, hydrogen peroxide 0.001 - 1 mM, 10 mM ABTS
[6] = Table 17, hydrogen peroxide 0.001 - 1 mM, 10 mM ABTS, read-out: Km (substrate H2O2)

Compound: OO [H2O2, hydrogen peroxide]
- Vmax (substrate H2O2) [1, 5]: 2003 ± 14 U/mg
- kcat (substrate H2O2) [1, 5]: 1152 ± 8.3 s⁻¹
- Km [1, 6]: 174 ± 4 µM
- Vmax (substrate H2O2) [2, 5]: 2337 ± 38 U/mg
- kcat (substrate H2O2) [2, 5]: 1344 ± 22 s⁻¹
- Km [2, 6]: 171 ± 9 µM

Compound: CCn1c(=NN=c2sc3cc(S(=O)(=O)O)ccc3n2CC)sc2cc(S(=O)(=O)O)ccc21 [ABTS, 2,2'-azino-bis(3-ethylbenzothiazoline-6-sulfonic acid)]
- Vmax (substrate ABTS) ([1]; Table 18, ABTS 0.1 - 7 mM, 1 mM hydrogen peroxide): 1224 ± 115 U/mg
- Vmax (substrate ABTS) ([2]; Table 18): 1214 ± 98 U/mg
- Vmax (substrate ABTS) ([2]; Table 19): 1203 ± 96 U/mg
- Vmax (substrate ABTS) [3]: 1285 ± 70 U/mg

Compound: Cc1cc(-c2cc(C)c(N)c(C)c2)cc(C)c1N [TMB, 3,3',5,5'-tetramethylbenzidine]
- Vmax (substrate TMB) [4]: 7146 ± 355 U/mg
- kcat (substrate TMB) [4]: 4169 ± 207 s⁻¹
